From patent publication US9816998B2, “Circulating exosomes as diagnostic/prognostic indicators and therapeutic targets of melanoma and other cancers” (Cornell University, priority 2011, dated 2017)

Test system: HGF/MET signaling
Assay: BM cell response to HGF after exosome pre-treatment: western blot of phospho-S6 kinase and phospho-ERK
Format: cell-based, mice
Conditions: 20 nM, before HGF addition
From the text: Mice were sacrificed and BM was isolated by flushing the femur and tibia with staining media (1% BSA in PBS) using a 25G½″ needle (BD) and further disrupting it by pipeting. Cell suspensions were filtered through 70 μm cell strainers (BD) prior to centrifugation. Red blood cells (RBC) from BM suspensions were lysed using ACK Lysis Buffer (Invitrogen). To enrich for progenitors, lineage positive (Lin^+, i.e., CD5, CD45R, CD19, CD11b, Ly6G/C, 7-4, TER119 positive) BM cells were immunomagnetically depleted using the EasySep® Mouse Hematopoietic Progenitor Cell Enrichment Kit (Stem Cell Technologies) as per manufacturer's instructions. For in vitro BM treatment with exosomes, BM cells were flushed as above and cultured in Stem Span (Stem Cell Technologies) for 16 hours in the presence or absence of 20 μg/ml indicated exosomes. For HGF analysis BM cells were then stimulated with 5 ng/ml HGF (Peprotech) for 4 hours and collected for Western blot analysis in RIPA buffer as indicated below by adding phosphatase inhibitors (1 mM Sodium orthovanadate and 5 mM β-Glycerol phosphate). For MET signaling inhibition, cells were incubated with 20 nM Crizotinib (Selleck Bio) 1 hour before HGF stimulation.
Exosomes or cells were lysed with RIPA buffer containing a complete protease inhibitor tablet (Roche). Lysates were cleared by centrifugation at 14,000×g for 20 min. […]

C[C@@H](Oc1cc(-c2cnn(C3CCNCC3)c2)cnc1N)c1c(Cl)ccc(F)c1Cl [Crizotinib]
Phosphorylation of ERK after F10 exosome treatment: blocked the phosphorylation | Phosphorylation of S6-kinase after F10 exosome treatment: blocked the phosphorylation
